{"source": "patent US20200237852A1", "about": "“Small Molecule Enhancers of Paneth Cell Function and Differentiation” (Massachusetts Institute of Technology, priority 2019, published 2020)", "key": {"[1]": {"system": "ISC-enriched organoids in ENR+CD", "experiment": "384-well secondary screen in ENR+CD incl. early vs. full treatment, secreted LYZ (LYZ.NS, LYZ.S)", "format": "cell-based, C57BL/6 mice", "text": "We again assessed treatment effect size with replicate SSMD (using a difference between well replicates and median assay value for all same-plate control wells—see Materials and Methods, High-throughput screening: 384-well secondary screen format and early vs. full treatment analysis) and hits were considered statistically validated by an SSMD greater than the false-positive-derived cutoffs (βα1=0.89 for 8 replicates with alpha=0.05; see Materials and Methods, High-throughput screening: 384-well secondary screen format and early vs. full treatment analysis) for both LYZ.NS and LYZ.S assays (FIG. 7A). Per this new cutoff, 10 dose-treatment combinations corresponding to 7 small molecules were chosen as hits, with every passing dose-treatment having a greater than 0 ATP effect size.\nFor 384-well plate high-throughput screening, ISC-enriched organoids were passaged and split to single cells with TyrpLE (Thermo Fisher Scientific) and cultured for 2-3 days in ENR+CVY prior to transfer to a “2.5-D” 384-well plate culture system. To prepare for “2.5D” plating, cell-laden Matrigel and media were homogenized via mechanical disruption and centrifuged at 300 g for 3 min at 4° C. Supernatant was removed and the pellet washed and spun in basal culture medium repeatedly until the cloudy Matrigel above the cell pellet was gone. On the final wash, pellet was resuspended in basal culture medium, the number of organoids counted, and the cell pellet was resuspended in ENR+CD medium at ˜7 clusters/μL. 384-well plates were first filled with 10 μL of 70% Matrigel (30% basal media) coating in each well using a Tecan Evo 150 Liquid Handling Deck, and allowed to gel at 37° C. for 5 minutes. Then 30 μL of cell-laden media was plated at the center of each well of 384-well plates with the liquid handler, and the plates were spun down at 50 g for 1 minute to embed organoids on the Matrigel surface. Compound libraries were pinned into prepped cell plates using 50 nL pins into 30 μL media/well. Cells were cultured at 37° C. with 5% CO2 for six days in ENR+CD medium supplemented with the tested compounds with a media change at three days. On day six, lysozyme secretion and cell viability were assessed using Lysozyme Assay Kit (EnzChek) and CellTiter-Glo 3D Cell Viability Assay (Promega), respectively, according to the manufacturers' protocols. Briefly, screen plates were washed 3× with FluoroBrite basal media (2 mM GlutaMAX and 10 mM HEPES in FluoroBrite DMEM (Thermo Fisher Scientific)) using a BioTek 406 plate washer with 10 min incubations followed by a 1 min centrifugation at 200 g to settle media between washes. After removal of the third wash, 30 μL of non-stimulated FluoroBrite basal media was added to each screen well using a Tecan Evo 150 Liquid Handling Deck from a non-stimulated treatment master plate, and plates were incubated for 30 min at 37° C. After 30 minutes, the top 15 μL of media from each well of the screen plate was transferred to a non-stimulated LYZ assay plate containing 15 μL of 20× DQ LYZ assay working solution using a Tecan Evo 150 Liquid Handling Deck. The non-stimulated LYZ assay plate was covered, shaken for 10 min, incubated for 50 min at 37° C., then fluorescence measured (shake 10 s; […]/518 nm) using a Tecan M1000 Plate Reader. After the media transfer to the non-stimulated LYZ assay plate, the remaining media was removed from the screen plate and 30 μL of Stimulated FluoroBrite basal media (supplemented with 10 μM CCh) was added to each screen well using a Tecan Evo 150 Liquid Handling Deck from a stimulated treatment master plate, and plates were incubated for 30 min at 37° C. After 30 minutes, the top 15 μL of media from each well of the screen plate was transferred to a stimulated LYZ assay plate containing 15 μL of 20× DQ LYZ assay working solution using a Tecan Evo 150 Liquid Handling Deck. […]"}, "[2]": {"system": "conventional organoid (ENR)", "experiment": "384-well screen in conventional organoid (ENR), secreted LYZ (LYZ.NS, LYZ.S)", "format": "cell-based, C57BL/6 mice", "conditions": "6-day ENR+treatment, single treatment-dose"}, "[3]": {"system": "ISC-enriched organoids in ENR+CD", "experiment": "384-well primary screen of 6-day PC differentiation, secreted LYZ (LYZ.NS, LYZ.S)", "format": "cell-based, C57BL/6 mice", "conditions": "6-day ENR+CD+library treatment; SSMD > 0.997 and z-scored FC > 1.282", "description": "This library offers translational advantages as many of the molecules are either presently used in the clinic for a wide variety of conditions or have been used in clinical trials and animal models.\nTo prepare for “2.5D” plating, cell-laden Matrigel and media were homogenized via mechanical disruption and centrifuged at 300 g for 3 min at 4° C. Supernatant was removed and the pellet washed and spun in basal culture medium repeatedly until the cloudy Matrigel above the cell pellet was gone. On the final wash, pellet was resuspended in basal culture medium, the number of organoids counted, and the cell pellet was resuspended in ENR+CD medium at ˜7 clusters/μL. 384-well plates were first filled with 10 μL of 70% Matrigel (30% basal media) coating in each well using a Tecan Evo 150 Liquid Handling Deck, and allowed to gel at 37° C. for 5 minutes. […] Compound libraries were pinned into prepped cell plates using 50 nL pins into 30 μL media/well. Cells were cultured at 37° C. with 5% CO2 for six days in ENR+CD medium supplemented with the tested compounds with a media change at three days. On day six, lysozyme secretion and cell viability were assessed using Lysozyme Assay Kit (EnzChek) and CellTiter-Glo 3D Cell Viability Assay (Promega), respectively, according to the manufacturers' protocols. […]"}, "[4]": {"system": "mature PC (CD24-mid & LYZ+) and secretory precursor (CD24-hi) populations", "experiment": "Flow cytometry profiling of organoids in 2.5-D (CD24, LYZ)", "format": "cell-based, C57BL/6 mice", "conditions": "6-day ENR+CD+treatment, fraction of viable cells, n=3 bio. donors", "excerpt": "Cells processed for flow cytometry were first gated to exclude potential debris or doublets (via widely accepted forward and side scatter gating), and subsequently gated for viability (via Zombie-violet viability dye exclusion), all viable cells were considered for CD24 & LYZ expression analysis. […] For flow cytometry profiling of the 6 validate small molecules, ISC-enriched ‘small clusters’ in 3D Matrigel culture were passaged to a “2.5D” 96-well plate culture system for six days of ENR, or ENR+CD+drug culture in the same manner as described previously with the exception of plating in 96-well plates prepared with a polymerized 70% Matrigel coating in each well. Plates were centrifuged at 50 g for 1 min at 4° C. to allow for cells to partially embed in Matrigel coating. Drugs were pinned into their respective wells using the Tecan from a drug stamp plate. Media was changed at day three, including pinning of the drug treatments. At day six, cells were washed 3× with basal media, then harvested from Matrigel by mechanical disruption in TrypLE Express to remove Matrigel and dissociate organoids to single cells. After vigorous pipetting and incubation at 37° C. for 20 mins, dissociated organoids were strained through a 96-well filter plate with a 30-40 μm filter (Pall) into an ultra low-bind 96-well plate (Costar) by centrifuging at 300×g for 3 mins at 4° C. The cell filtrate was centrifuged again at 300×g for 3 mins at 4° C. to pellet the cells. Cell pellets were resuspended in FACS buffer (2% FBS in PBS0), then transferred to an ultra low-bind 96-well plate for flow prep. Cells were stained with Zombie-violet viability dye (BioLegend) at 100× for viability staining and/or antibody staining solution. FITC-conjugated antibody for lysozyme and APC-conjugated antibody for CD24 were used at 100× dilution (BioLegend). Flow cytometry was performed using a LSR Fortessa (BD; Koch Institute Flow Cytometry Core at MIT). Flow cytometry data was analyzed using FlowJo X v10.1 software."}, "[5]": {"system": "6-day ENR+CD cells", "experiment": "Cell pellet ATP after short-term (3-hour) stimulation, 2.5-D 96-well platform", "format": "cell-based, murine", "conditions": "CCh: adj. p<0.01 for 10 and 100 μM doses", "text": "We first sought to profile the potential short-term actors, IFN-γ, LPS, and CCh, and see if with the added resolution of this first-of-its-kind PC platform, we might be able to determine high-resolution EC50's. To generate sufficient cells for plating out all necessary conditions we first expanded and enriched ISCs in traditional 3-D culture and subsequently differentiated for 4 days towards PCs (ENR+CD). Next, we passaged and plated these cells into 96-well plates as 2.5-D and continued differentiating for an additional 2 days in ENR+CD. On day 6 of differentiation, each well was then washed with basal media repeatedly and stimulated with its respective agent, with a measurement of supernatant LYZ paired to cell pellet ATP (FIG. 2A). This screen was repeated on three separate occasions with cells from three distinct murine donors and analyzed combined. We first wanted to determine the approximate standardized effect size of each treatment at each dose, which was accomplished through the replicate-based strictly standardized mean difference (SSMD), an effect size measure based on the statistics of contrast variables, and particularly useful in screening applications as it is a measure which takes into account both mean difference and variance in a single measure. […]"}, "[6]": {"system": "6-day ENR+CD cells", "experiment": "Long-term (48-hour) modulators of basal and CCh-induced LYZ secretion", "format": "cell-based, murine", "conditions": "48-hour treatment", "text": "We next sought to profile potential long-term modulators of differentiated PC survival and antimicrobial secretion, as well as gauge the interaction between long-term modulators and short-term induced secretion (via CCh). To accomplish this, we employed a similar set up as in the short-term experiment, with the exception that upon plating day 4 ENR+CD cells we additionally supplemented in either MDP, LPS, TNF-α, or IFN-γ for the additional 2 days in culture and assayed all conditions for both basal and CCh-induced LYZ secretion over 3 hours on day 6 of differentiation (FIG. 3A). […] Additionally, we see that the long-term addition reduces CCh-induced secretory function relative to the untreated control for all agents (FIG. 3D).\nSmall intestinal crypts were isolated from C57BL/6 mice of both sexes, aged between three to six months in all experiments. Crypts were then cultured in a Matrigel culture system. Briefly, crypts were resuspended in basal culture medium (Advanced DMEM/F12 with 2 mM GlutaMAX and 10 mM HEPES; Thermo Fisher Scientific) at a 1:1 ratio with Corning™ Matrigel™ Membrane Matrix—GFR (Fisher Scientific) and plated at the center of each well of 24-well plates. Following Matrigel polymerization, 500 μL of small intestinal crypt culture medium (basal media plus 100× N2 supplement, 50×B27 supplement; Life Technologies, 500× N-acetyl-L-cysteine; Sigma-Aldrich) supplemented with growth factors EGF—E (50 ng/mL, Life Technologies), Noggin—N (100 ng/mL, PeproTech) and R-spondin 1—R (500 ng/mL, PeproTech) and small molecules CHIR99021—C (3 μM, LC Laboratories) and valproic acid—V (1 mM, Sigma-Aldrich) was added to each well. ROCK inhibitor Y-27632—Y (10 μM, R&D Systems) was added for the first 2 days of culture. Cells were cultured at 37° C. with 5% CO2, and cell culture medium was changed every other day. After 6 days of culture, crypt organoids were isolated from Matrigel by mechanical dissociation. To expand enriched ISCs (ENR+CV/Y) or Paneth Cells (ENR+CD), organoids were cultured in 24-well plates, suspended in 40 uL 3-D gels (50-50 GFR MATRIGEL®, Basal culture media), with 500 uL of crypt media supplemented with necessary growth factors and small molecules. ROCK inhibitor (Y) was added for the first two days of ISC culture following reconstitution from cryopreservation or trypLE passaging to single cells. Cell culture medium was changed every other day. After 4 days of culture in ENR+CV, cell clusters were differentiated to PCs under the ENR+CD condition for 96-well short and long-term screens. For 384-well differentiation screens, 4-day ENR+CV clusters were passaged to single cells using trypLE, replated and expanded another 3 days in 3-D ENR+CVY and then passaged directly into screens.\nFor 96-well plate high-throughput screening, 4-day differentiated (ENR+CD) cell clusters in 3D Matrigel were transferred to a “2.5-D” 96-well plate culture system. Briefly, cell culture gel and medium were homogenized via mechanical disruption and centrifuged at 300 g for 3 min at 4° C. […] On the last repeat, pellet was resuspended in basal culture medium, the number of cell clusters counted, and centrifuged at 300 g for 3 min at 4° C. […] At end time points (following 2 days in culture and 3 hours of stimulation), lysozyme secretion and cell viability were assessed using Lysozyme Assay Kit and CellTiter-Glo 3D Cell Viability Assay (Promega), respectively, according to the manufacturers' protocols. […]"}, "[7]": {"system": "6-day ENR+CD cells", "experiment": "Short-term (3-hour) stimulation of LYZ secretion, 2.5-D 96-well platform", "format": "cell-based, murine", "conditions": "3-hour stimulation, across all tested doses", "text": "We first sought to profile the potential short-term actors, IFN-γ, LPS, and CCh, and see if with the added resolution of this first-of-its-kind PC platform, we might be able to determine high-resolution EC50's. To generate sufficient cells for plating out all necessary conditions we first expanded and enriched ISCs in traditional 3-D culture and subsequently differentiated for 4 days towards PCs (ENR+CD). Next, we passaged and plated these cells into 96-well plates as 2.5-D and continued differentiating for an additional 2 days in ENR+CD. On day 6 of differentiation, each well was then washed with basal media repeatedly and stimulated with its respective agent, with a measurement of supernatant LYZ paired to cell pellet ATP (FIG. 2A). This screen was repeated on three separate occasions with cells from three distinct murine donors and analyzed combined. We first wanted to determine the approximate standardized effect size of each treatment at each dose, which was accomplished through the replicate-based strictly standardized mean difference (SSMD), an effect size measure based on the statistics of contrast variables, and particularly useful in screening applications as it is a measure which takes into account both mean difference and variance in a single measure. […] In total, we see that our 2.5-D platform does provide a reasonable system for assessing and screening for potential short-term modulators of PC antimicrobial secretion.\nSmall intestinal crypts were isolated from C57BL/6 mice of both sexes, aged between three to six months in all experiments. Crypts were then cultured in a Matrigel culture system. Briefly, crypts were resuspended in basal culture medium (Advanced DMEM/F12 with 2 mM GlutaMAX and 10 mM HEPES; Thermo Fisher Scientific) at a 1:1 ratio with Corning™ Matrigel™ Membrane Matrix—GFR (Fisher Scientific) and plated at the center of each well of 24-well plates. […]"}}, "data": [{"compound": "Cc1cn(-c2cc(NC(=O)c3ccc(C)c(Nc4nccc(-c5cccnc5)n4)c3)cc(C(F)(F)F)c2)cn1", "note": "[Nilotinib]", "values": [{"measurement": "biological potency compared with Bosutinib (LYZ assays)", "setting": "[1]; 6-day ENR+CD+treatment", "value": "the more biologically potent"}, {"measurement": "validation in secondary screen (SSMD above cutoff for both LYZ.NS and LYZ.S)", "setting": "[1]; 6-day ENR+CD+treatment vs ENR+CD+DMSO, cutoff 0.89, 8 replicates", "value": "multiple validated doses"}, {"measurement": "LYZ.S reading versus ENR+DMSO", "setting": "[2]", "value": "significantly lower"}, {"measurement": "primary screen hit status in LYZ.NS and LYZ.S assays", "setting": "[3]", "value": "strongest LYZ assay-performing treatment-dose"}, {"measurement": "secretory precursor (CD24-hi) population relative to control", "setting": "[4]", "value": "higher proportion"}]}, {"compound": "NC(=O)c1ccc(-c2nc(-c3ccc4c(c3)OCO4)c(-c3ccccn3)[nH]2)cc1", "note": "[SB431542]", "values": [{"measurement": "LYZ.NS/ATP, early versus full treatment", "setting": "[1]; ENR+CD, 240 nM", "value": "significant (adj. p<0.05) difference between early and full treatment"}, {"measurement": "ATP-normalized LYZ assays (LYZ.NS/ATP, LYZ.S/ATP), early versus full treatment", "setting": "[1]; ENR+CD, across all doses", "value": "suggestive trend across all doses"}, {"measurement": "primary screen hit status in LYZ.NS and LYZ.S assays", "setting": "[3]", "value": "strongest LYZ assay-performing treatment-dose"}]}, {"compound": "IFN-γ: cytokine interferon-gamma", "values": [{"measurement": "effect on cellular ATP", "setting": "[5]", "value": "no significant changes in cellular ATP"}, {"measurement": "effect size of reduction of CCh-induced secretory function relative to untreated control", "setting": "[6]; CCh-induced secretion over 3 hours on day 6", "value": "fairly moderate"}, {"measurement": "change in basal LYZ secretion (SSMD effect)", "setting": "[6]; basal secretion over 3 hours on day 6", "value": "moderate increase in secretion"}, {"measurement": "SSMD effect size as short-term modulator of LYZ secretion", "setting": "[7]", "value": "fairly weak effect sizes"}]}]}
